Where two headings read alike, the source gives them in different places.
Assays:
DLD1 BRCA2 (−/−) cells = assay: 7-day cell viability assay (CellTiter-Glo), DLD1 BRCA2 (−/−); assay type: cell-based, human; details: 7-day CellTiter-Glo, n=2, read-out: Viability IC50 (uM) DLD1 BRCA2 null
Experimental: (§1) Cell lines DLD1 WT and DLD1 BRCA2 (−/−) (Horizon Discovery Cat No. HD PAR-008 and HD-105-007) were plated in 384-well culture plates at seeding densities of 100cells/50 ul/well and 200 cells/50 uL/well respectively. The seeding densities are pre-determined from the growth curve kinetics performed to ensure log linear phase of cell growth for these 2 cell lines. These assay plates are then placed in the incubator at 37° C., 5% CO2, relative humidity >90% for a few hours before addition of test compounds. Compounds are dispensed using the Tecan HPD300 or Echo based on the plate map in the appropriate wells of the 384-well plates. The cells are treated with nine-point dose response with 3-fold serial dilutions of test compounds starting at 10 uM top concentration. After addition of the test compounds, the plates are incubated at 37° C., 5% CO2, relative humidity >90% for 7 days. CellTiter-Glo (Promega Cat. No. G7573), ATP detection reagent is prepared according to manufacturer's specifications. Cell assay plates are removed from incubator and bring to room temperature (RT) by letting them sit at bench top for at least 15 min. Using the MultiDrop liquid handler or a multichannel pipette, 35 μL/well of CTG is added and the plates are then placed shakes for 5 seconds, RT.

DLD1 WT cells = assay: 7-day cell viability assay (CellTiter-Glo), DLD1 parental (WT); assay type: cell-based, human; details: 7-day CellTiter-Glo, n=2
Experimental: as §1

Compound	IC50 (DLD1 BRCA2 (−/−) cells; Homo sapiens, DLD-1, 168 h) [µM]	IC50 (DLD1 WT cells; Homo sapiens, DLD-1, 168 h) [µM]	IC50 (DLD1 BRCA2 (−/−) cells) [µM]	IC50 (DLD1 WT cells) [µM]
COc1cnc(Cl)cc1-c1cc(C)ncc1C(=O)Nc1nc2c(s1)CN(C(=O)c1cc(C)nc3ccnn13)C2	0.001 to 0.1	≥ 10		
COc1cnc(Cl)cc1-c1cc(C)ncc1C(=O)Nc1nc2c(s1)CN(C(=O)c1nc(C(F)F)ccc1F)C2	0.001 to 0.1	≥ 10		
COc1cnc(Cl)cc1-c1cc(C)ncc1C(=O)Nc1nc2c(s1)CN(C(=O)c1ncc(C(F)F)cc1C)C2	0.001 to 0.1	≥ 10		
COc1cnc(Cl)cc1-c1cc(C)ncc1C(=O)Nc1nc2c(s1)CN(C(=O)c1cc(Cl)cnc1C)C2	0.001 to 0.1	≥ 10		
COc1cnc(Cl)cc1-c1cc(C)ncc1C(=O)Nc1nc2c(s1)CN(C(=O)c1ccc(C(F)F)c(C)n1)C2	0.001 to 0.1	≥ 10		
COc1cnc(Cl)cc1-c1cc(C)ncc1C(=O)Nc1nc2c(s1)CN(C(=O)c1nc(C(F)F)ccc1C)C2	0.001 to 0.1	≥ 10		
COc1cnc(Cl)cc1-c1cc(C)ncc1C(=O)Nc1nc2c(s1)CN(C(=O)c1ncc(OC(F)F)cc1Cl)C2	0.1 to 0.25	≥ 10		
COc1cnc(Cl)cc1-c1cc(C)ncc1C(=O)Nc1nc2c(s1)CN(C(=O)c1ccn3nccc3n1)C2	0.001 to 0.1	≥ 10		
COc1cnc(Cl)cc1-c1cc(C)ncc1C(=O)Nc1nc2c(s1)CN(C(=O)c1ccc(C(F)F)c(Cl)n1)C2	0.001 to 0.1	≥ 10		
COc1cnc(Cl)cc1-c1cc(C)ncc1C(=O)Nc1nc2c(s1)CN(C(=O)c1ccc(C(F)F)c(OC)n1)C2	0.001 to 0.1	5 to 10		
COc1cnc(Cl)cc1-c1cc(C)ncc1C(=O)Nc1nc2c(s1)CN(C(=O)c1cnc(OC(F)F)cc1Cl)C2	0.001 to 0.1	≥ 10		
COc1cnc(Cl)cc1-c1cc(C)ncc1C(=O)Nc1nc2c(s1)CN(C(=O)c1cnc(OC(F)F)cc1C)C2	0.001 to 0.1	≥ 10		
COc1cnc(Cl)cc1-c1cc(C)ncc1C(=O)Nc1nc2c(s1)CN(C(=O)c1ncc(C(F)F)cc1F)C2	0.001 to 0.1	≥ 10		
COc1cnc(Cl)cc1-c1cc(C)ncc1C(=O)Nc1nc2c(s1)CN(C(=O)c1ccc(C(C)(F)F)cn1)C2	0.001 to 0.1	≥ 10		
COc1cnc(Cl)cc1-c1cc(C)ncc1C(=O)Nc1nc2c(s1)CN(C(=O)c1ncc(OC(F)F)cc1C)C2	0.001 to 0.1	≥ 10		
COc1cnc(Cl)cc1-c1cc(C)ncc1C(=O)Nc1nc2c(s1)CN(C(=O)c1ccc(C#N)c(C)n1)C2	0.001 to 0.1	≥ 10		
COc1ccc(C(F)F)c(C(=O)N2Cc3nc(NC(=O)c4cnc(C)cc4-c4cc(Cl)ncc4OC)sc3C2)n1	0.001 to 0.1	≥ 10		
COc1cnc(Cl)cc1-c1cc(C)ncc1C(=O)Nc1nc2c(s1)CN(C(=O)c1cc(Cl)c(C(F)F)cn1)C2	0.001 to 0.1	5 to 10		
COc1cnc(Cl)cc1-c1cc(C)ncc1C(=O)Nc1nc2c(s1)CN(C(=O)c1ncc(Cl)nc1C)C2	0.5 to 2	≥ 10		
COc1cnc(Cl)cc1-c1cc(C)ncc1C(=O)Nc1nc2c(s1)CN(Cc1cccc(C(F)F)n1)C2	0.001 to 0.1	≥ 10		
COc1cnc(Cl)cc1-c1cc(C)ncc1C(=O)Nc1nc2c(s1)CN(C(=O)c1nc(C)c(C(F)F)nc1C)C2	0.001 to 0.1	≥ 10		
COc1cnc(Cl)cc1-c1cc(C)ncc1C(=O)Nc1nc2c(s1)CN(C(=O)c1nc(OC)c(Cl)nc1C)C2	0.001 to 0.1	≥ 10		
COc1cnc(Cl)cc1-c1cc(C)ncc1C(=O)Nc1nc2c(s1)CN(C(=O)c1nc(OC)c(C(F)F)cc1C)C2	0.001 to 0.1	≥ 10		

Compound	IC50 (DLD1 BRCA2 (−/−) cells; Homo sapiens, DLD-1, 168 h) [µM]	IC50 (DLD1 WT cells; Homo sapiens, DLD-1, 168 h) [µM]	IC50 (DLD1 BRCA2 (−/−) cells) [µM]	IC50 (DLD1 WT cells) [µM]
COc1cnc(Cl)cc1-c1cc(C)ncc1C(=O)Nc1nc2c(s1)CN(C(=O)c1nc(OC)c(Cl)cc1C)C2	0.001 to 0.1	5 to 10		
COc1cnc(Cl)cc1-c1cc(C)ncc1C(=O)Nc1nc2c(s1)CN(C(=O)c1nc(C)c(C(F)F)cc1Cl)C2	0.001 to 0.1	≥ 10		
COc1cnc(C(F)F)cc1-c1cc(C)ncc1C(=O)Nc1nc2c(s1)CN(C(=O)c1cccc(C(F)F)n1)C2	0.001 to 0.1	≥ 10		
COc1cnc(Cl)cc1-c1cc(C)ncc1C(=O)Nc1nc2c(s1)CN(C(=O)c1ncc(C(F)F)c(C)n1)C2	0.001 to 0.1	≥ 10		
COc1cnc(Cl)cc1-c1cc(C)ncc1C(=O)Nc1nc2c(s1)CN(C(=O)c1ccc(C(F)(F)F)c(C)n1)C2	0.001 to 0.1	≥ 10		
COc1cnc(Cl)cc1-c1cc(C)ncc1C(=O)Nc1nc2c(s1)CN(C(=O)c1cnc(C(F)(F)F)c(C)n1)C2	0.001 to 0.1	0.5 to 2		
COc1cnc(Cl)cc1-c1cc(C)ncc1C(=O)Nc1nc2c(s1)CN(C(=O)c1cc(C)c(C(F)(F)F)c(C)n1)C2	0.001 to 0.1	≥ 10		
COc1cnc(Cl)cc1-c1cc(C)ncc1C(=O)Nc1nc2c(s1)CN(C(=O)c1ncc(C(F)(F)F)c(C)c1C)C2	0.001 to 0.1	≥ 10		
COc1cnc(Cl)cc1-c1cc(C)ncc1C(=O)Nc1nc2c(s1)CN(C(=O)c1cc(C)c(C(F)(F)F)nc1C)C2	0.001 to 0.1	≥ 10		
COc1cnc(Cl)cc1-c1cc(C)ncc1C(=O)Nc1nc2c(s1)CN(C(=O)c1cnc(C(F)(F)F)c(C)c1C)C2	0.001 to 0.1	≥ 10		
2′-Chloro-5′-methoxy-6-methyl-N-(5-(3-methyl-5-(trifluoromethoxy)picolinoyl)-5,6-dihydro-4H-pyrrolo[3,4-d]thiazol-2-yl)-[4,4′-bipyridine]-3-carboxamide [Example 560]			0.001 to 0.1	≥ 10
2′-Chloro-5′-methoxy-6-methyl-N-(5-(4-methyl-6-(trifluoromethoxy)nicotinoyl)-5,6-dihydro-4H-pyrrolo[3,4-d]thiazol-2-yl)-[4,4′-bipyridine]-3-carboxamide [Example 561]			0.001 to 0.1	≥ 10
2′-Chloro-5′-methoxy-6-methyl-N-(5-(6-methyl-5-(trifluoromethoxy)picolinoyl)-5,6-dihydro-4H-pyrrolo[3,4-d]thiazol-2-yl)-[4,4′-bipyridine]-3-carboxamide [Example 555]			0.001 to 0.1	≥ 10
2′-Chloro-N-(5-(3,5-dimethoxypyrazine-2-carbonyl)-5,6-dihydro-4H-pyrrolo[3,4-d]thiazol-2-yl)-5′-methoxy-6-methyl-[4,4′-bipyridine]-3-carboxamide [Example 413]			0.001 to 0.1	≥ 10
2′-Chloro-N-(5-(5,6-dimethylpyrazine-2-carbonyl)-5,6-dihydro-4H-pyrrolo[3,4-d]thiazol-2-yl)-5′-methoxy-6-methyl-[4,4′-bipyridine]-3-carboxamide [Example 410]			0.001 to 0.1	≥ 10
2′-Chloro-N-(5-(5-(difluoromethyl)-3-methoxypyrazine-2-carbonyl)-5,6-dihydro-4H-pyrrolo[3,4-d]thiazol-2-yl)-5′-methoxy-6-methyl-[4,4′-bipyridine]-3-carboxamide [Example 418]			0.001 to 0.1	5 to 10
2′-Chloro-N-(5-(6-chloro-3-methylpyrazine-2-carbonyl)-5,6-dihydro-4H-pyrrolo[3,4-d]thiazol-2-yl)-5′-methoxy-6-methyl-[4,4′-bipyridine]-3-carboxamide [Example 505]			0.001 to 0.1	5 to 10
2′-chloro-N-(5-(2-(difluoromethyl)pyrimidine-4-carbonyl)-5,6-dihydro-4H-pyrrolo[3,4-d]thiazol-2-yl)-5′-methoxy-6-methyl-[4,4′-bipyridine]-3-carboxamide [Example 641]			0.001 to 0.1	≥ 10
2′-chloro-N-(5-(3-chloro-5-(1,1-difluoroethyl)picolinoyl)-5,6-dihydro-4H-pyrrolo[3,4-d]thiazol-2-yl)-5′-methoxy-6-methyl-[4,4′-bipyridine]-3-carboxamide [Example 625]			0.1 to 0.25	≥ 10
2′-chloro-N-(5-(4-cyano-1-methyl-1H-pyrazole-5-carbonyl)-5,6-dihydro-4H-pyrrolo[3,4-d]thiazol-2-yl)-5′-methoxy-6-methyl-[4,4′-bipyridine]-3-carboxamide [Example 581]			0.001 to 0.1	≥ 10
2′-chloro-N-(5-(5-chloro-2-methylisonicotinoyl)-5,6-dihydro-4H-pyrrolo[3,4-d]thiazol-2-yl)-5′-methoxy-6-methyl-[4,4′-bipyridine]-3-carboxamide [Example 519]			0.001 to 0.1	≥ 10
2′-chloro-N-(5-(5-chloro-4-(difluoromethyl)pyrimidine-2-carbonyl)-5,6-dihydro-4H-pyrrolo[3,4-d]thiazol-2-yl)-5′-methoxy-6-methyl-[4,4′-bipyridine]-3-carboxamide [Example 644]			0.1 to 0.25	≥ 10
2′-chloro-N-(5-(5-chloropyrimidine-2-carbonyl)-5,6-dihydro-4H-pyrrolo[3,4-d]thiazol-2-yl)-5′-(difluoromethoxy)-6-methyl-[4,4′-bipyridine]-3-carboxamide [Example 648]			0.001 to 0.1	≥ 10

Reference: patent US20250230171A1 (MOMA Therapeutics, Inc., priority 2023, published 2025)
